Test results reported in patent US12624023B2, “Sulfonylurea derivatives and uses thereof” (NodThera Limited, priority 2019, dated 2026).

Tests used:
[1] = test system: IL-1β release upon NLRP3 activation in peripheral blood mononuclear cells (PBMC); test: PBMC IC50 determination assay (IL-1β release, LPS priming + ATP stimulation, HTRF); assay type: cell-based; conditions: PBMC from buffy coats; LPS 1 μg/ml 3 h, compound 30 min, ATP 5 mM 1 h; IL-1β by HTRF
Protocol: The compounds of the present disclosure were tested for their inhibitory activity against IL-1β release upon NLRP3 activation in peripheral blood mononuclear cells (PBMC).
PBMC were isolated from buffy coats by density gradient centrifugation on Histopaque-1077 (Sigma, cat no. 10771). Isolated cells were seeded into the wells (280,000 cells/well) of a 96-well plate and incubated for 3 h with lipopolysaccharide (LPS, 1 μg/ml diluted 1000× from a 1 mg/ml stock solution). The compounds of the present disclosure were added (a single compound per well) and the cells were incubated for 30 min. Next, the cells were stimulated with ATP (5 mM final concentration diluted 20× from a 100 mM stock solution) for 1 h and the cell culture media from the wells were collected for further analysis.
(§1) The release of IL-1β into the media was determined by quantitative detection of IL-1β in the media using HTRF®, CisBio cat. No. 62HIL1BPEH. Briefly, cell culture supernatant were dispensed directly into the assay plate containing antibodies labelled with the HTRF® donor and acceptor. A microplate spectrophotometer (BMG) was used to detect signals at 655 nm and 620 nm. The detection range of IL-1β HTRF® was 39-6500 μg/ml.

[2] = test system: IL-1β release upon NLRP3 activation in human whole blood; test: Whole blood (WB) assay (IL-1β release, LPS priming + ATP stimulation, HTRF); assay type: cell-based; conditions: heparin, diluted 9:5 with media, LPS 1 μg/ml 3 h, compound 30 min, ATP 5 mM 1 h, IL-1β by HTRF
Protocol: The compounds of the present disclosure were tested for their inhibitory activity against IL-1β release upon NLRP3 activation in human whole blood.
Whole blood was drawn from single healthy donors and treated with sodium heparin anticoagulant. Blood was diluted with cell culture media at a 9:5 ratio, seeded in a 96-well plate and incubated for 3 h with lipopolysaccharide (LPS, 1 μg/ml final concentration diluted 1000× from a 1 mg/ml stock solution). The compounds of the present disclosure were added (a single compound concentration per well) and the blood was incubated for 30 min. Next, the blood was stimulated with ATP (5 mM final concentration diluted 20× from a 100 mM stock solution) for 1 h and the cell culture media from the wells were collected for further analysis.
as §1, with “were diluted as appropriate to bring IL-1β levels within the HTRF® detection range ([…]) and subsequently” for “were”, “dispensed” for “dispensed directly”, “nm.” for “nm. The detection range of IL-1β HTRF® was 39-6500 μg/ml.”

Structure (SMILES)	IC50 [1] [nM]	IC50 [2] [nM]
CCc1sc2c(c1NC(=O)NS(=O)(=O)N(c1cnn(C)c1)C1CCCN(C)C1)CCC2 (stereo not drawn) [Compound 77, 3-{2-Ethyl-4H,5H,6H-cyclopenta[b]thiophen-3-yl}-1-[(1-methyl-1H-pyrazol-4-yl)(1-methylpiperidin-3-yl)sulfamoyl]urea]	< 100	< 1000
CCc1oc(C(C)C)cc1NC(=O)NS(=O)(=O)N(c1cnn(C)c1)C1CCCN(C)C1 (stereo not drawn) [Compound 78, 3-[2-Ethyl-5-(propan-2-yl)furan-3-yl]-1-[(1-methyl-1H-pyrazol-4-yl)(1-methyl-piperidin-3-yl)sulfamoyl]urea]	500 to 1000	1000 to 3000
CCc1cc(NC(=O)NS(=O)(=O)N(c2cnn(C)c2)C2CCCN(C)C2)c(C(C)C)o1 (stereo not drawn) [Compound 79, 3-[5-Ethyl-2-(propan-2-yl)furan-3-yl]-1-[(1-methyl-1H-pyrazol-4-yl)(1-methyl-piperidin-3-yl)sulfamoyl]urea]	< 100	< 1000
CC(C)c1sc(Cl)cc1NC(=O)NS(=O)(=O)N(c1cnn(C)c1)[C@H]1CCCN(C)C1 [Compound 80, 3-[5-Chloro-2-(propan-2-yl)thiophen-3-yl]-1-[(1-methyl-1H-pyrazol-4-yl)[(3S)-1-methylpiperidin-3-yl]sulfamoyl]urea]	< 100	< 1000
Cc1cc(NC(=O)NS(=O)(=O)N(c2cnn(C)c2)[C@H]2CCCN(C)C2)c(C(C)C)s1 [Compound 81, 1-[(1-Methyl-1H-pyrazol-4-yl)[(3S)-1-methylpiperidin-3-yl]sulfamoyl]-3-[5-methyl-2-(propan-2-yl)thiophen-3-yl]urea]	< 100	< 1000
CC(C)c1cc(NC(=O)NS(=O)(=O)N(c2cnn(C)c2)[C@@H]2C[C@@H](F)CN(C)C2)c(C(C)C)s1 [Compound 82, 3-[2,5-Bis(propan-2-yl)thiophen-3-yl]-1-{[(3R,5R)-5-fluoro-1-methylpiperidin-3-yl](1-methyl-1H-pyrazol-4-yl)sulfamoyl}urea]	< 100	1000 to 3000
CC(C)c1cc(NC(=O)NS(=O)(=O)N(CCN(C)C)c2cnn(C(C)C)c2)c(C(C)C)o1 [Compound 83, 1-[2,5-Bis(propan-2-yl)furan-3-yl]-3-{[2-(dimethylamino)ethyl][1-(propan-2-yl)-1H-pyrazol-4-yl]sulfamoyl}urea]	100 to 500	1000 to 3000
CC(C)c1cc(NC(=O)NS(=O)(=O)N(c2cnn(C(C)C)c2)[C@H]2CCCN(C)C2)c(C(C)C)s1 [Compound 84, 3-[2,5-Bis(propan-2-yl)thiophen-3-yl]-1-{[(3S)-1-methylpiperidin-3-yl][1-(propan-2-yl)-1H-pyrazol-4-yl]sulfamoyl}urea]	< 100	< 1000
CC(C)c1sc2c(c1NC(=O)NS(=O)(=O)N(c1cnn(C)c1)[C@H]1CCCN(C)C1)CCC2 [Compound 85, 1-[(1-Methyl-1H-pyrazol-4-yl)[(3S)-1-methylpiperidin-3-yl]sulfamoyl]-3-[2-(propan-2-yl)-4H,5H,6H-cyclopenta[b]thiophen-3-yl]urea]	< 100	< 1000
CCc1sc2c(c1NC(=O)NS(=O)(=O)N(c1cnn(C)c1)C1CCCN(C)C1)CCCC2 (stereo not drawn) [Compound 86, 3-(2-Ethyl-4,5,6,7-tetrahydro-1-benzothiophen-3-yl)-1-[(1-methyl-1H-pyrazol-4-yl)(1-methylpiperidin-3-yl)sulfamoyl]urea]	100 to 500	1000 to 3000
CCc1cc(NC(=O)NS(=O)(=O)N(c2cnn(C(C)C)c2)[C@H]2CCCN(C)C2)c(CC)o1 [Compound 87, 3-(2,5-Diethylfuran-3-yl)-1-{[(3S)-1-methylpiperidin-3-yl][1-(propan-2-yl)-1H-pyrazol-4-yl]sulfamoyl}urea]	100 to 500	1000 to 3000
CCc1cc(NC(=O)NS(=O)(=O)N(c2cnn(C)c2)[C@H]2CCCN(C)C2)c(C(C)C)s1 [Compound 88, 3-[5-Ethyl-2-(propan-2-yl)thiophen-3-yl]-1-[(1-methyl-1H-pyrazol-4-yl)[(3S)-1-methylpiperidin-3-yl]sulfamoyl]urea]	< 100	< 1000
CCc1sc(C(C)C)cc1NC(=O)NS(=O)(=O)N(c1cnn(C)c1)[C@H]1CCCN(C)C1 [Compound 89, 3-[2-Ethyl-5-(propan-2-yl)thiophen-3-yl]-1-[(1-methyl-1H-pyrazol-4-yl)[(3S)-1-methylpiperidin-3-yl]sulfamoyl]urea]	< 100	1000 to 3000
Cc1sc(C(C)C)cc1NC(=O)NS(=O)(=O)N(c1cnn(C)c1)[C@H]1CCCN(C)C1 [Compound 90, 1-[(1-Methyl-1H-pyrazol-4-yl)[(3S)-1-methylpiperidin-3-yl]sulfamoyl]-3-[2-methyl-5-(propan-2-yl)thiophen-3-yl]urea]	100 to 500	1000 to 3000
CC(C)c1cc(NC(=O)NS(=O)(=O)N(c2cnn(C3CC3)c2)[C@H]2CCCN(C)C2)c(C(C)C)s1 [Compound 91, 3-[2,5-Bis(propan-2-yl)thiophen-3-yl]-1-[(1-cyclopropyl-1H-pyrazol-4-yl)[(3S)-1-methylpiperidin-3-yl]sulfamoyl]urea]	< 100	< 1000
CC(C)c1cc(NC(=O)NS(=O)(=O)N(c2cnn(C)c2)[C@H]2C[C@H](F)CN(C)C2)c(C(C)C)s1 [Compound 92, 3-[2,5-Bis(propan-2-yl)thiophen-3-yl]-1-{[(3S,5S)-5-fluoro-1-methylpiperidin-3-yl](1-methyl-1H-pyrazol-4-yl)sulfamoyl}urea]	< 100	< 1000
CC(C)c1cc(NC(=O)NS(=O)(=O)N(c2cnn(C)c2)C2CN(C)CC(F)(F)C2)c(C(C)C)s1 (stereo not drawn) [Compound 93, 3-[2,5-Bis(propan-2-yl)thiophen-3-yl]-1-[(5,5-difluoro-1-methylpiperidin-3-yl)(1-methyl-1H-pyrazol-4-yl)sulfamoyl]urea]	100 to 500	3000 to 10000
CCc1oc2c(c1NC(=O)NS(=O)(=O)N(c1cnn(C)c1)C1CCCN(C)C1)CCCC2 (stereo not drawn) [Compound 94, 3-(2-Ethyl-4,5,6,7-tetrahydro-1-benzofuran-3-yl)-1-[(1-methyl-1H-pyrazol-4-yl)(1-methylpiperidin-3-yl)sulfamoyl]urea]	100 to 500	< 1000
Cc1sc2c(c1NC(=O)NS(=O)(=O)N(c1cnn(C)c1)[C@@H]1CCCN(C)C1)CCC2 [Compound 95, 1-[(1-Methyl-1H-pyrazol-4-yl)[(3R)-1-methylpiperidin-3-yl]sulfamoyl]-3-{2-methyl-4H,5H,6H-cyclopenta[b]thiophen-3-yl}urea]	100 to 500	< 1000
CC(C)c1cc(NC(=O)NS(=O)(=O)N(c2cnn(C)c2)[C@H]2C[C@@H](F)CN(C)C2)c(C(C)C)s1 [Compound 96, 3-[2,5-Bis(propan-2-yl)thiophen-3-yl]-1-{[(3S,5R)-5-fluoro-1-methylpiperidin-3-yl](1-methyl-1H-pyrazol-4-yl)sulfamoyl}urea]	100 to 500	3000 to 10000
Cc1sc2c(c1NC(=O)NS(=O)(=O)N(c1cnn(C)c1)C1CCCN(C)C1)CCCC2 (stereo not drawn) [Compound 97, 1-[(1-Methyl-1H-pyrazol-4-yl)(1-methylpiperidin-3-yl)sulfamoyl]-3-(2-methyl-4,5,6,7-tetrahydro-1-benzothiophen-3-yl)urea]	100 to 500	< 1000
CN1CCCC(N(c2cnn(C)c2)S(=O)(=O)NC(=O)Nc2c(C(F)(F)F)sc3c2CCC3)C1 (stereo not drawn) [Compound 98, 1-[(1-Methyl-1H-pyrazol-4-yl)(1-methylpiperidin-3-yl)sulfamoyl]-3-[2-(trifluoromethyl)-4H,5H,6H-cyclopenta[b]thiophen-3-yl]urea]	100 to 500	1000 to 3000
CC(C)c1cc(NC(=O)NS(=O)(=O)N(c2cnn(C3CC3)c2F)C2CCCN(C)C2)c(C(C)C)s1 (stereo not drawn) [Compound 99, 3-[2,5-Bis(propan-2-yl)thiophen-3-yl]-1-[(1-cyclopropyl-5-fluoro-1H-pyrazol-4-yl)(1-methylpiperidin-3-yl)sulfamoyl]urea]	< 100	1000 to 3000
Cc1cc(NC(=O)NS(=O)(=O)N(c2cnn(C)c2)C2CCN(C)CC2)c(C(C)C)s1 [Compound 100, 1-[(1-Methyl-1H-pyrazol-4-yl)(1-methylpiperidin-4-yl)sulfamoyl]-3-[5-methyl-2-(propan-2-yl)thiophen-3-yl]urea]	100 to 500	< 1000
